Assay results: PubChem BioAssay (NCI)
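Five concentrations, 48 hours, 96-well plates. TGI: concentration producing complete growth inhibition.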

Tests used:
Test in all cases: growth of human tumour cells (NCI), 48 h
NCI-H460 lung = test system: NCI-H460 lung
A549 NSCLC = test system: A549 NSCLC
CCRF-CEM leukemia = test system: CCRF-CEM leukemia
UO-31 renal = test system: UO-31 renal
SK-MEL-2 melanoma = test system: SK-MEL-2 melanoma
HOP-92 NSCLC = test system: HOP-92 NSCLC
K-562 leukemia = test system: K-562 leukemia
A498 renal = test system: A498 renal
DU-145 prostate = test system: DU-145 prostate
SK-OV-3 ovarian = test system: SK-OV-3 ovarian
786-0 renal = test system: 786-0 renal
SF-295 CNS = test system: SF-295 CNS
MDA-MB-435 = test system: MDA-MB-435
ACHN renal = test system: ACHN renal
RXF 393 renal = test system: RXF 393 renal
HCT-116 colon = test system: HCT-116 colon
BT-549 breast = test system: BT-549 breast
HT29 colon = test system: HT29 colon
PC-3 prostate = test system: PC-3 prostate

Compound	TGI (NCI-H460 lung)	TGI (A549 NSCLC)	TGI (CCRF-CEM leukemia)	TGI (UO-31 renal)	TGI (SK-MEL-2 melanoma)	TGI (HOP-92 NSCLC)	TGI (K-562 leukemia)	TGI (A498 renal)	TGI (DU-145 prostate)	TGI (SK-OV-3 ovarian)	TGI (786-0 renal)	TGI (SF-295 CNS)	TGI (MDA-MB-435)	TGI (ACHN renal)	TGI (RXF 393 renal)	TGI (HCT-116 colon)	TGI (BT-549 breast)	TGI (HT29 colon)	TGI (PC-3 prostate)
CC(=O)OCC1OC(N2C(c3ccccc3)=CC(c3ccco3)C(C#N)=C2S)C(OC(C)=O)C(OC(C)=O)C1OC(C)=O (stereo not drawn)	> 62.2 µM	> 65.6 µM	> 100 µM	29.5 µM	65.4 µM	26.9 µM	> 100 µM	> 63.3 µM	> 88.2 µM	59 µM	5.93 µM	> 70.3 µM	> 70.5 µM	24.8 µM	15.7 µM	33.2 µM	> 100 µM	> 100 µM	> 38.6 µM
COc1ccc2nc3c([N+](=O)[O-])ccc4c3c(c2c1)NCCN4CCN(C)C	1.46 µM	2.19 µM	4 µM	3.42 µM	2.92 µM	2.73 µM	> 10 µM	3.12 µM	4.91 µM	0.973 µM	1.79 µM	1.69 µM	3.49 µM	1.66 µM	2.38 µM	1.3 µM	3.39 µM	2.34 µM	1.86 µM
CN(C)C=Nc1c2ccccc2nc2ccccc12	–	17.3 µM	21.2 µM	29.5 µM	9.26 µM	22.3 µM	22.6 µM	21 µM	39.7 µM	23.4 µM	16.9 µM	21.6 µM	15.1 µM	34 µM	16.4 µM	17.8 µM	13.2 µM	14.5 µM	14.5 µM
C/C=C/C=C\C=C/C(O)C(C)C(CCC(C)C1OC(=O)C=CC1C)OP(=O)(O)O (stereo not drawn)	1.76 µM	3.83 µM	0.625 µM	0.93 µM	2.32 µM	0.881 µM	0.905 µM	0.404 µM	1.76 µM	1.68 µM	1.51 µM	1.01 µM	0.773 µM	1.26 µM	1.38 µM	0.717 µM	0.591 µM	1.08 µM	0.549 µM
C/C=C(/C)C(=O)O[C@H]1[C@H]2[C@@H]([C@@H](OC(C)=O)[C@H](C)C(=O)[C@@]34C[C@@H](C)C(=O)[C@]3(/C=C(\C)[C@H]1OC(C)=O)O4)C2(C)C	> 20 µM	–	3.35 µM	16 µM	11 µM	7.73 µM	8.43 µM	16 µM	> 20 µM	> 20 µM	5.5 µM	> 20 µM	6.6 µM	7.05 µM	6.75 µM	5.99 µM	5.84 µM	–	15.8 µM
O=C(NCCCNCCN1C(=O)c2cccc3cc([N+](=O)[O-])cc(c23)C1=O)c1cc(-c2ccccc2)nc2ccccc12	12.6 µM	15.7 µM	22.2 µM	7.46 µM	12.1 µM	15 µM	2.5 µM	8.87 µM	17.3 µM	21.6 µM	9.04 µM	14.8 µM	2.91 µM	14.5 µM	3.34 µM	16.8 µM	20.2 µM	2.84 µM	16.7 µM
CC1(C)C2CCC1(C)C(OC(=O)/C=C/C(=O)OC1CC3CCC1(C)C3(C)C)C2 (stereo not drawn)	> 100 µM	> 100 µM	31.1 µM	> 100 µM	> 100 µM	> 100 µM	> 100 µM	> 100 µM	> 100 µM	–	> 100 µM	> 100 µM	> 100 µM	> 100 µM	> 100 µM	> 100 µM	> 100 µM	> 100 µM	> 100 µM
Cc1cc2nc(C=C(C(F)(F)F)C(F)(F)F)sc2cc1C	16 µM	26.7 µM	> 100 µM	7.17 µM	5.27 µM	16.2 µM	> 100 µM	28.5 µM	10.2 µM	32.7 µM	5.17 µM	13.4 µM	7.07 µM	7.48 µM	3.68 µM	2.93 µM	4.64 µM	9.93 µM	4.98 µM
C=C1C[C@@H]2O[C@H]3[C@H]4[C@@H](C[C@@H](C)[C@@H](OC(C)=O)[C@H]42)[C@@H](C)CO[C@@]3(C)[C@H](OC(=O)CCCCCCC)C[C@H]1O	30.1 µM	34 µM	38 µM	29.7 µM	36.7 µM	30.4 µM	> 100 µM	30.8 µM	28.3 µM	–	28.9 µM	36.4 µM	34.8 µM	35 µM	36.1 µM	30.1 µM	32.9 µM	46.2 µM	28.7 µM
O=C1CSC(c2ccccc2)N1c1ccc(-n2c(-c3ccccc3)nc3ccccc3c2=O)cc1 (stereo not drawn)	> 100 µM	> 100 µM	> 100 µM	> 100 µM	> 100 µM	> 100 µM	> 100 µM	> 100 µM	> 100 µM	> 100 µM	> 100 µM	> 100 µM	> 100 µM	> 100 µM	> 100 µM	> 100 µM	> 100 µM	> 100 µM	> 100 µM
CC(=O)NC(Cc1ccccc1)NC(=O)O (stereo not drawn)	> 100 µM	> 100 µM	> 100 µM	> 100 µM	> 100 µM	> 100 µM	> 100 µM	> 100 µM	> 100 µM	> 100 µM	> 100 µM	> 100 µM	> 100 µM	> 100 µM	> 100 µM	> 100 µM	> 100 µM	> 100 µM	> 100 µM
O=C1OC(C2Cc3ccc4c(c3C2=O)CCC4)c2ccccc21 (stereo not drawn)	> 100 µM	> 100 µM	> 100 µM	> 100 µM	> 100 µM	> 100 µM	> 100 µM	> 100 µM	> 100 µM	> 100 µM	> 100 µM	> 100 µM	> 100 µM	> 100 µM	> 100 µM	> 100 µM	> 100 µM	> 100 µM	> 100 µM
